Data published in ChEMBL document CHEMBL5291721, “A preclinical secondary pharmacology resource illuminates target-adverse drug reaction associations of marketed drugs” (Nat Commun, 2023).

Legend:
[1] = target: 5-hydroxytryptamine receptor 2B (Homo sapiens, UniProt P41595); assay type: functional, cell-based
Adenosine receptor A3 = target: T1, Adenosine receptor A3 (Homo sapiens, UniProt P0DMS8)
T1 sequence (P0DMS8 whole entry): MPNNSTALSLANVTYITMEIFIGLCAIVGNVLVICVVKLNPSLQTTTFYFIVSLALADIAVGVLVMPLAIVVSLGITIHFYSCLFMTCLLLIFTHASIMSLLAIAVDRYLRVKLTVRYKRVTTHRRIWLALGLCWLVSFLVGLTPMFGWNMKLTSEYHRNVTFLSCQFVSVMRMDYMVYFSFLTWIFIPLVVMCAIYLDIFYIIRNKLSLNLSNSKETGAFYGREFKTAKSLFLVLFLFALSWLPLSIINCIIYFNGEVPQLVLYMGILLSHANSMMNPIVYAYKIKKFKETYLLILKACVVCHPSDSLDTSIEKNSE

[2] = target: cGMP-inhibited 3',5'-cyclic phosphodiesterase 3A (Homo sapiens, UniProt Q14432); assay type: functional
Chain of cGMP-inhibited 3',5'-cyclic phosphodiesterase 3A (Q14432 whole entry): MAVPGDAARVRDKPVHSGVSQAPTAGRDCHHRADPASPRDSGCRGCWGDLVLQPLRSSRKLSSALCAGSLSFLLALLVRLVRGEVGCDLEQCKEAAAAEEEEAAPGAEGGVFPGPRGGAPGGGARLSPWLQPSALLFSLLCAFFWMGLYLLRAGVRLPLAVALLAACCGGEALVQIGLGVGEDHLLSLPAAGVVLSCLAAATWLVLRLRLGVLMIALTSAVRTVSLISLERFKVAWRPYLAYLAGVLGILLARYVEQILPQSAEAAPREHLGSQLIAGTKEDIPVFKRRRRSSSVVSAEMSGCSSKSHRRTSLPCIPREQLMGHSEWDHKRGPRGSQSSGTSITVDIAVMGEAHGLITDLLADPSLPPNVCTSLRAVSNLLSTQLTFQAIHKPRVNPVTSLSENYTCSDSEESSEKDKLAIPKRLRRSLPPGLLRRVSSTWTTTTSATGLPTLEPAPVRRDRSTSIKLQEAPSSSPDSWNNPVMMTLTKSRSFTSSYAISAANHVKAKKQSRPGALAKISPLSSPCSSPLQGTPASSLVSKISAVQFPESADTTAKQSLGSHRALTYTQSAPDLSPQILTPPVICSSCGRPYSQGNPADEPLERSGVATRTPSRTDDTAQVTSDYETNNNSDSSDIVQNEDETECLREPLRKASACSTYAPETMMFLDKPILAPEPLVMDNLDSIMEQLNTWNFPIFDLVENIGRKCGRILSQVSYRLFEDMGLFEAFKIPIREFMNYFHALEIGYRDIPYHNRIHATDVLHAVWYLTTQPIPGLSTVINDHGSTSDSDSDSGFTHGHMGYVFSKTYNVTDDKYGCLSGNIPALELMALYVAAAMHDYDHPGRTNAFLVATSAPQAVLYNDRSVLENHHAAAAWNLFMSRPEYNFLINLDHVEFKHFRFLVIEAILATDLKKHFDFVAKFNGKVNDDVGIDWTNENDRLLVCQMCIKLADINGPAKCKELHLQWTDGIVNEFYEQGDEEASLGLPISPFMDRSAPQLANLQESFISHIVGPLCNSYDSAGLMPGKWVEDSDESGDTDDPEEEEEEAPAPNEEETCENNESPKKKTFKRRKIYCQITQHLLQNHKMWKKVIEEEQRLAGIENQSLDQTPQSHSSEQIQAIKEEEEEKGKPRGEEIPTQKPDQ

[3] = target: Muscarinic acetylcholine receptor M3 (Homo sapiens, UniProt P20309)
Chain of Muscarinic acetylcholine receptor M3 (P20309 whole entry): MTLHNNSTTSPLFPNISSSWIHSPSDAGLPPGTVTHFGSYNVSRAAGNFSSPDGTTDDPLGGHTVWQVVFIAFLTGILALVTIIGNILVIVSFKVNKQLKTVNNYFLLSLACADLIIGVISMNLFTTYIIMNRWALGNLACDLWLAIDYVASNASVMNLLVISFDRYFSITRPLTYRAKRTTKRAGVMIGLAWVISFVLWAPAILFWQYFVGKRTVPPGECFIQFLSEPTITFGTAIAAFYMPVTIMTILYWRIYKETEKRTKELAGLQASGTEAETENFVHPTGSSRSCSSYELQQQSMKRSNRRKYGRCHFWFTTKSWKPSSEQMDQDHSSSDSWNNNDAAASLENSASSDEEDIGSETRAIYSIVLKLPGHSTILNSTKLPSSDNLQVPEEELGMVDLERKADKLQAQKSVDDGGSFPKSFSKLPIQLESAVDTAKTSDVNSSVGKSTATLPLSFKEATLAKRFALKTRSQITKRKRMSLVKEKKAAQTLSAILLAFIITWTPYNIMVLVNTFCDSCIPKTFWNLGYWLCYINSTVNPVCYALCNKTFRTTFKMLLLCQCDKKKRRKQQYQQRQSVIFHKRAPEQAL

[4] = target: T2, Alpha-1A adrenergic receptor (Homo sapiens, UniProt P35348); assay type: functional, cell-based
T2 sequence (P35348 whole entry): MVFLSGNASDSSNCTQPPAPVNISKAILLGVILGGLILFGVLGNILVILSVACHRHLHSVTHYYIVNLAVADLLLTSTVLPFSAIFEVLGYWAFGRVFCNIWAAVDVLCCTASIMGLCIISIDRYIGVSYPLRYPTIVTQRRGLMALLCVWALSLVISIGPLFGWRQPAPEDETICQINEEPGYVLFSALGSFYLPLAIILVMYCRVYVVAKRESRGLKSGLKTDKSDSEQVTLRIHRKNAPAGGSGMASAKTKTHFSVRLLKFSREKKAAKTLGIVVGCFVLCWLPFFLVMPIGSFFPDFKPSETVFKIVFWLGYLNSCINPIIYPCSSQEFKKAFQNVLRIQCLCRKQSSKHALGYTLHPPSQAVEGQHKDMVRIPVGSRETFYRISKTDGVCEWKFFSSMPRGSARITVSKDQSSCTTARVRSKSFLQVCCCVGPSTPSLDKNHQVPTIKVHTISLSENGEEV

Cannabinoid receptor 1 = Cannabinoid receptor 1 (Homo sapiens, UniProt P21554); assay type: functional, cell-based
Chain of Cannabinoid receptor 1 (P21554 whole entry): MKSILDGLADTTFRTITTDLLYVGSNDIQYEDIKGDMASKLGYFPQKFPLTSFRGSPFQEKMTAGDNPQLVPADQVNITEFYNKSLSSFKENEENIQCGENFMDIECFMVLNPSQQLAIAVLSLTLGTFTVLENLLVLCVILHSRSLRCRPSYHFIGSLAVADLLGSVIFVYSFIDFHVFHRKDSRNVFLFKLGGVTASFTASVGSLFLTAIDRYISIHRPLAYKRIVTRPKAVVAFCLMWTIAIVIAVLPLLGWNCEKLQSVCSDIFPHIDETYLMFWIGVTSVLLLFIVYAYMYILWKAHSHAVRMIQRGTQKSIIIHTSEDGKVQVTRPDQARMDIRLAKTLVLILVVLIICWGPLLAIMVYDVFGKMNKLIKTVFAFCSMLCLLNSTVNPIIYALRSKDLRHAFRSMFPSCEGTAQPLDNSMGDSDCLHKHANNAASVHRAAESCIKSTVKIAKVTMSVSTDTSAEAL

[5] = target: T3, Neuropeptide Y receptor type 1 (Homo sapiens, UniProt P25929)
T3 sequence (P25929 whole entry): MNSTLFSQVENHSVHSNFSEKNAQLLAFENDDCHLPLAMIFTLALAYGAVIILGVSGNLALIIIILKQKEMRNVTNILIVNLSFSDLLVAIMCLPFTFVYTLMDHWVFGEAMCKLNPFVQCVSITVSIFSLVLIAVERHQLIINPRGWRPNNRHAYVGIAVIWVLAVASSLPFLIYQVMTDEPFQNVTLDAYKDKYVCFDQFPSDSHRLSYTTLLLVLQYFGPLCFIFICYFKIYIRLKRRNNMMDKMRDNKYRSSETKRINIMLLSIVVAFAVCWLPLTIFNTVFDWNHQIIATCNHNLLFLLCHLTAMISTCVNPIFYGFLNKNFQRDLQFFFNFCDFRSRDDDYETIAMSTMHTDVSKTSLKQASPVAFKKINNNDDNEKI

Glucocorticoid receptor = target: T4, Glucocorticoid receptor (Homo sapiens, UniProt P04150)
T4 sequence (P04150 whole entry): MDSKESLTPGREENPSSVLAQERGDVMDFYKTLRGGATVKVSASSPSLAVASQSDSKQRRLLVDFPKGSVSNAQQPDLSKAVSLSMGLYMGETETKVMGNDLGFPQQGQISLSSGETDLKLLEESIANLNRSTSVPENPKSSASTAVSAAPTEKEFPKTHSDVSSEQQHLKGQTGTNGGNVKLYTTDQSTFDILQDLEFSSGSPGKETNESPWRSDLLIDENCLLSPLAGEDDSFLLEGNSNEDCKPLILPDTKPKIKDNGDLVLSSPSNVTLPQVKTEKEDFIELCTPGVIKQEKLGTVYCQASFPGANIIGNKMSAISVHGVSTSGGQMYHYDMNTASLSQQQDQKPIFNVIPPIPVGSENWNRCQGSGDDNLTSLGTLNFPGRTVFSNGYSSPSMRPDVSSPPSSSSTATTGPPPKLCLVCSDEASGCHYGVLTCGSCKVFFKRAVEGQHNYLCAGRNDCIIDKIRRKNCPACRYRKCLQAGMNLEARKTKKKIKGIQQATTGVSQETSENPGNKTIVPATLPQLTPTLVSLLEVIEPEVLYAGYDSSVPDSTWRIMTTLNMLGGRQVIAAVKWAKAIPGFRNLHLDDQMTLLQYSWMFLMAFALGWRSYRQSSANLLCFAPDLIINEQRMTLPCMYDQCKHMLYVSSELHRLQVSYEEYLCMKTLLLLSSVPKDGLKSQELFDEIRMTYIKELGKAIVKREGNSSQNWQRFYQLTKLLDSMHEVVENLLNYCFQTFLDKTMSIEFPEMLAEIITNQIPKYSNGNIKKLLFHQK
Further: assay procedure not described here.

Chain of 5-hydroxytryptamine receptor 2B (P41595 whole entry): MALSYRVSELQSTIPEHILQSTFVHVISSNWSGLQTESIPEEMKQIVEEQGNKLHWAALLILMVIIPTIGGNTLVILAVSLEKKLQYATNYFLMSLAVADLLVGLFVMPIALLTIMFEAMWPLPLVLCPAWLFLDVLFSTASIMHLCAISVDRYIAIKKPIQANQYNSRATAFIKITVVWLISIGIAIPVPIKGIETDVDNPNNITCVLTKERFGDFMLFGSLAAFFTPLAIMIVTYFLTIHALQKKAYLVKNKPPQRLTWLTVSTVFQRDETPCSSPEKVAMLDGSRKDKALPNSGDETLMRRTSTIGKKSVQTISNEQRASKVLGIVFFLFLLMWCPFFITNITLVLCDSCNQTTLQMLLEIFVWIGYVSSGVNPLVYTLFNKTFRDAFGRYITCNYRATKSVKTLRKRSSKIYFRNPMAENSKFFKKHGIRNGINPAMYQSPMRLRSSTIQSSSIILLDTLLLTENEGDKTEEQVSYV

SMILES	AC50 [1] [µM]	AC50 (Adenosine receptor A3) [µM]	AC50 [2] [µM]	AC50 [3] [µM]	AC50 [4] [µM]	AC50 (Cannabinoid receptor 1) [µM]	AC50 [5] [µM]	AC50 (Glucocorticoid receptor) [µM]
CC(C)(S)[C@@H](N)C(=O)O [PENICILLAMINE]	> 30	> 30	> 30					
COCCCN1CCC(NC(=O)c2cc(Cl)c(N)c3c2OCC3)CC1 [PRUCALOPRIDE]	> 30		> 30	> 30	15	> 30		
COc1cc2nc(N(C)CCCNC(=O)C3CCCO3)nc(N)c2cc1OC (stereo unspecified) [ALFUZOSIN]				> 30		> 30	> 30	> 30
C[C@@H](O)[C@H]1C(=O)N2C(C(=O)O)=C(S[C@@H]3CN[C@H](C(=O)N(C)C)C3)[C@H](C)[C@H]12 [MEROPENEM]					> 300	> 300	> 10	> 10
CCOC(=O)[C@H](CCc1ccccc1)N[C@@H](C)C(=O)N1[C@H](C(=O)O)C[C@H]2CCCC[C@@H]21 [TRANDOLAPRIL]	> 30	> 30	> 30					
Nc1nc(NC2CC2)c2ncn([C@H]3C=C[C@@H](CO)C3)c2n1 [ABACAVIR]				> 30	> 30	> 30	> 30	> 30
CN1C(=O)CCS(=O)(=O)C1c1ccc(Cl)cc1 (stereo unspecified) [CHLORMEZANONE]				> 30			> 10	> 10
CN(C)CCC(c1ccc(Cl)cc1)c1ccccn1 (stereo unspecified) [CHLORPHENIRAMINE]					> 30	> 30	> 30	> 30
CCCSc1ccc2nc(NC(=O)OC)[nH]c2c1 [ALBENDAZOLE]							> 10	> 10
N[C@@H]1[C@H]2CN(c3nc4c(cc3F)c(=O)c(C(=O)O)cn4-c3ccc(F)cc3F)C[C@@H]12 [TROVAFLOXACIN]					> 30	> 30		
CC(=O)NCCCS(=O)(=O)O [ACAMPROSATE]				> 30	> 30	> 30	> 30	> 30
c1cnc(N2CCN(Cc3ccc4c(c3)OCO4)CC2)nc1 [PIRIBEDIL]				> 30	23	> 30		
NS(=O)(=O)Cc1noc2ccccc12 [ZONISAMIDE]				> 30			> 10	> 10
CCCN1C[C@H](CSC)C[C@@H]2c3cccc4[nH]cc(c34)C[C@H]21 [PERGOLIDE]						> 30	> 30	> 30
Cc1c(C(=O)NN2CCCCC2)nn(-c2ccc(Cl)cc2Cl)c1-c1ccc(Cl)cc1 [RIMONABANT]				> 30	11		> 30	> 30
COc1ccccc1OCC(O)CN1CCN(CC(=O)Nc2c(C)cccc2C)CC1 (stereo unspecified) [RANOLAZINE]				> 30	1.7		> 30	> 30
CN(C)CCC=C1c2ccccc2C(C)(C)c2ccccc21				0.38	0.63	> 30		
CC1=C(C(=O)O)N2C(=O)[C@@H](NC(=O)[C@H](N)c3ccccc3)[C@H]2SC1 [CEPHALEXIN ANHYDROUS]					> 30	> 30	> 30	> 30
C[C@H]1CNCCc2ccc(Cl)cc21 [LORCASERIN]				> 30	> 30	> 30		
Nc1ccn([C@H]2CC[C@@H](CO)O2)c(=O)n1 [ZALCITABINE]				> 30	> 30	> 30	> 10	
